According to the NIST ThermoML archive (doi:10.1016/j.jct.2018.02.018):
± gives the expanded uncertainty stated by the source.

Columns and labels:
[1] = xn = mol fraction of the nth substance listed; conditions: 100 kPa, Liquid; for speed of sound: Frequency=3 MHz, Single path-length method; for mass density: Vibrating tube method
[2] = refractive index (Na D-line) (dimensionless); xn = mol fraction of the nth substance listed; conditions: 100 kPa, Liquid, Standard Abbe refractometry

## NCc1ccccc1 [benzylamine] + C[S+](C)[O-]
[1]; 293.15 K, x2 = 0
  speed of sound: 1579.7 ± 1.7 m/s
  mass density: 983 ± 4 kg/m3
[1]; 293.15 K, x2 = 0.1031
  speed of sound: 1578.5 ± 1.7 m/s
  mass density: 992 ± 4 kg/m3
[1]; 293.15 K, x2 = 0.1998
  speed of sound: 1575.9 ± 1.6 m/s
  mass density: 1001 ± 4 kg/m3
[1]; 293.15 K, x2 = 0.2979
  speed of sound: 1571.1 ± 1.6 m/s
  mass density: 1011 ± 4 kg/m3
[1]; 293.15 K, x2 = 0.399
  speed of sound: 1565.5 ± 1.6 m/s
  mass density: 1021 ± 4 kg/m3
[1]; 293.15 K, x2 = 0.4991
  speed of sound: 1558.8 ± 1.6 m/s
  mass density: 1032 ± 4 kg/m3
[1]; 293.15 K, x2 = 0.5886
  speed of sound: 1551.6 ± 1.5 m/s
  mass density: 1043 ± 4 kg/m3
[1]; 293.15 K, x2 = 0.6999
  speed of sound: 1540.9 ± 1.5 m/s
  mass density: 1056 ± 4 kg/m3
[1]; 293.15 K, x2 = 0.8029
  speed of sound: 1530 ± 1.5 m/s
  mass density: 1070 ± 4 kg/m3
[1]; 293.15 K, x2 = 0.8991
  speed of sound: 1517.7 ± 1.5 m/s
  mass density: 1084 ± 4 kg/m3
[1]; 293.15 K, x2 = 0.9493
  speed of sound: 1510.6 ± 1.5 m/s
  mass density: 1092 ± 4 kg/m3
[1]; 303.15 K, x2 = 0
  speed of sound: 1540.2 ± 1.7 m/s
  mass density: 974 ± 4 kg/m3
[1]; 303.15 K, x2 = 0.1031
  speed of sound: 1539.3 ± 1.7 m/s
  mass density: 983 ± 4 kg/m3
[1]; 303.15 K, x2 = 0.1998
  speed of sound: 1536.1 ± 1.6 m/s
  mass density: 992 ± 4 kg/m3
[1]; 303.15 K, x2 = 0.2979
  speed of sound: 1533.5 ± 1.6 m/s
  mass density: 1002 ± 4 kg/m3
[1]; 303.15 K, x2 = 0.399
  speed of sound: 1527.6 ± 1.6 m/s
  mass density: 1012 ± 4 kg/m3
[1]; 303.15 K, x2 = 0.4991
  speed of sound: 1521.6 ± 1.6 m/s
  mass density: 1023 ± 4 kg/m3
[1]; 303.15 K, x2 = 0.5886
  speed of sound: 1514.9 ± 1.5 m/s
  mass density: 1033 ± 4 kg/m3
[1]; 303.15 K, x2 = 0.6999
  speed of sound: 1504.8 ± 1.5 m/s
  mass density: 1047 ± 4 kg/m3
[1]; 303.15 K, x2 = 0.8029
  speed of sound: 1494.9 ± 1.5 m/s
  mass density: 1061 ± 4 kg/m3
[1]; 303.15 K, x2 = 0.8991
  speed of sound: 1483.3 ± 1.5 m/s
  mass density: 1075 ± 4 kg/m3
[1]; 303.15 K, x2 = 0.9493
  speed of sound: 1476.2 ± 1.5 m/s
  mass density: 1082 ± 4 kg/m3
[1]; 313.15 K, x2 = 0
  speed of sound: 1500 ± 1.7 m/s
  mass density: 965 ± 4 kg/m3
[1]; 313.15 K, x2 = 0.1031
  speed of sound: 1500.2 ± 1.7 m/s
  mass density: 974 ± 4 kg/m3
[1]; 313.15 K, x2 = 0.1998
  speed of sound: 1497.6 ± 1.6 m/s
  mass density: 983 ± 4 kg/m3
[1]; 313.15 K, x2 = 0.2979
  speed of sound: 1494.6 ± 1.6 m/s
  mass density: 993 ± 4 kg/m3
[1]; 313.15 K, x2 = 0.399
  speed of sound: 1490.3 ± 1.6 m/s
  mass density: 1003 ± 4 kg/m3
[1]; 313.15 K, x2 = 0.4991
  speed of sound: 1484.8 ± 1.6 m/s
  mass density: 1014 ± 4 kg/m3
[1]; 313.15 K, x2 = 0.5886
  speed of sound: 1478.6 ± 1.5 m/s
  mass density: 1024 ± 4 kg/m3
[1]; 313.15 K, x2 = 0.6999
  speed of sound: 1469.2 ± 1.5 m/s
  mass density: 1038 ± 4 kg/m3
[1]; 313.15 K, x2 = 0.8029
  speed of sound: 1460 ± 1.5 m/s
  mass density: 1051 ± 4 kg/m3
[1]; 313.15 K, x2 = 0.8991
  speed of sound: 1448.6 ± 1.5 m/s
  mass density: 1065 ± 4 kg/m3
[1]; 313.15 K, x2 = 0.9493
  speed of sound: 1442.2 ± 1.5 m/s
  mass density: 1072 ± 4 kg/m3
[1]; 323.15 K, x2 = 0
  speed of sound: 1461.1 ± 1.7 m/s
  mass density: 957 ± 4 kg/m3
[1]; 323.15 K, x2 = 0.1031
  speed of sound: 1461.4 ± 1.7 m/s
  mass density: 966 ± 4 kg/m3
[1]; 323.15 K, x2 = 0.1998
  speed of sound: 1459.4 ± 1.6 m/s
  mass density: 974 ± 4 kg/m3
[1]; 323.15 K, x2 = 0.2979
  speed of sound: 1457.4 ± 1.6 m/s
  mass density: 984 ± 4 kg/m3
[1]; 323.15 K, x2 = 0.399
  speed of sound: 1453.3 ± 1.6 m/s
  mass density: 994 ± 4 kg/m3
[1]; 323.15 K, x2 = 0.4991
  speed of sound: 1448.4 ± 1.6 m/s
  mass density: 1005 ± 4 kg/m3
[1]; 323.15 K, x2 = 0.5886
  speed of sound: 1442.7 ± 1.5 m/s
  mass density: 1015 ± 4 kg/m3
[1]; 323.15 K, x2 = 0.6999
  speed of sound: 1434 ± 1.5 m/s
  mass density: 1028 ± 4 kg/m3
[1]; 323.15 K, x2 = 0.8029
  speed of sound: 1425.3 ± 1.5 m/s
  mass density: 1042 ± 4 kg/m3
[1]; 323.15 K, x2 = 0.8991
  speed of sound: 1414.6 ± 1.5 m/s
  mass density: 1055 ± 4 kg/m3
[1]; 323.15 K, x2 = 0.9493
  speed of sound: 1408.5 ± 1.5 m/s
  mass density: 1062 ± 4 kg/m3
[2]; 293.15 K, x2 = 0
  refractive index: 1.544 ± 0.006
[2]; 293.15 K, x2 = 0.1031
  refractive index: 1.54 ± 0.006
[2]; 293.15 K, x2 = 0.1998
  refractive index: 1.536 ± 0.006
[2]; 293.15 K, x2 = 0.2979
  refractive index: 1.532 ± 0.006
[2]; 293.15 K, x2 = 0.399
  refractive index: 1.526 ± 0.006
[2]; 293.15 K, x2 = 0.4991
  refractive index: 1.52 ± 0.006
[2]; 293.15 K, x2 = 0.5886
  refractive index: 1.515 ± 0.006
[2]; 293.15 K, x2 = 0.6999
  refractive index: 1.507 ± 0.006
[2]; 293.15 K, x2 = 0.8029
  refractive index: 1.498 ± 0.006
[2]; 293.15 K, x2 = 0.8991
  refractive index: 1.49 ± 0.006
[2]; 293.15 K, x2 = 0.9493
  refractive index: 1.485 ± 0.006
[2]; 303.15 K, x2 = 0
  refractive index: 1.539 ± 0.006
[2]; 303.15 K, x2 = 0.1031
  refractive index: 1.535 ± 0.006
[2]; 303.15 K, x2 = 0.1998
  refractive index: 1.531 ± 0.006
[2]; 303.15 K, x2 = 0.2979
  refractive index: 1.527 ± 0.006
[2]; 303.15 K, x2 = 0.399
  refractive index: 1.522 ± 0.006
[2]; 303.15 K, x2 = 0.4991
  refractive index: 1.516 ± 0.006
[2]; 303.15 K, x2 = 0.5886
  refractive index: 1.51 ± 0.006
[2]; 303.15 K, x2 = 0.6999
  refractive index: 1.502 ± 0.006
[2]; 303.15 K, x2 = 0.8029
  refractive index: 1.494 ± 0.006
[2]; 303.15 K, x2 = 0.8991
  refractive index: 1.485 ± 0.006
[2]; 303.15 K, x2 = 0.9493
  refractive index: 1.48 ± 0.006
[2]; 313.15 K, x2 = 0
  refractive index: 1.534 ± 0.006
[2]; 313.15 K, x2 = 0.1031
  refractive index: 1.53 ± 0.006
[2]; 313.15 K, x2 = 0.1998
  refractive index: 1.527 ± 0.006
[2]; 313.15 K, x2 = 0.2979
  refractive index: 1.522 ± 0.006
[2]; 313.15 K, x2 = 0.399
  refractive index: 1.517 ± 0.006
[2]; 313.15 K, x2 = 0.4991
  refractive index: 1.511 ± 0.006
[2]; 313.15 K, x2 = 0.5886
  refractive index: 1.505 ± 0.006
[2]; 313.15 K, x2 = 0.6999
  refractive index: 1.498 ± 0.006
[2]; 313.15 K, x2 = 0.8029
  refractive index: 1.489 ± 0.006
[2]; 313.15 K, x2 = 0.8991
  refractive index: 1.481 ± 0.006
[2]; 313.15 K, x2 = 0.9493
  refractive index: 1.476 ± 0.006
[2]; 323.15 K, x2 = 0
  refractive index: 1.529 ± 0.006
[2]; 323.15 K, x2 = 0.1031
  refractive index: 1.526 ± 0.006
[2]; 323.15 K, x2 = 0.1998
  refractive index: 1.522 ± 0.006
[2]; 323.15 K, x2 = 0.2979
  refractive index: 1.517 ± 0.006
[2]; 323.15 K, x2 = 0.399
  refractive index: 1.512 ± 0.006
[2]; 323.15 K, x2 = 0.4991
  refractive index: 1.506 ± 0.006
[2]; 323.15 K, x2 = 0.5886
  refractive index: 1.501 ± 0.006
[2]; 323.15 K, x2 = 0.6999
  refractive index: 1.493 ± 0.006
[2]; 323.15 K, x2 = 0.8029
  refractive index: 1.485 ± 0.006
[2]; 323.15 K, x2 = 0.8991
  refractive index: 1.476 ± 0.006
[2]; 323.15 K, x2 = 0.9493
  refractive index: 1.471 ± 0.006
